Data published in patent publication US20090305993A1, “METHODS AND COMPOSITION FOR THE TREATMENT OF GASTROINTESTINAL DISORDERS” (IRONWOOD PHARMACEUTICALS, INC., priority 2006, published 2009).
Where a SMILES comes first, the peptide text is derived from it. Bridges are numbered along the chain shown (N, C = ends).

Columns and labels:
[1] = tested on: female Wistar rats; test: partial restraint stress-induced hyperalgesia model; assay type: in vivo, rat; conditions: oral 0.3 and 3.0 μg/kg, distending pressure 15 mm Hg, p<0.0001, FIG. 7b
Method: Five groups of female Wistar rats (weighing 200-250 g each), were surgically prepared for electromyography as described (Morteau et al. 1994 Dig Dis Sci 39:1239-48) and were used to evaluate the effects of SEQ ID NO:3 on colorectal sensitivity and compliance after a 2 hour partial restraint stress session. Partial restraint stress (PRS), a relatively mild stress, was induced as previously described (Morteau et al. 1994 Dig Dis Sci 39:1239-48). Female rats were lightly anesthetized with diethyl ether and their shoulders, upper forelimbs and thoracic trunk were wrapped in a confining harness of paper tape to restrict, but not prevent body movements. Control sham-stress animals were anesthetized but not wrapped. […] Electrical activity was recorded with an electroencephalograph (Mini VIII, Alvar, Paris, France) using a short time constant (0.03 sec.) to remove low-frequency signals (<3 Hz) and a paper speed of 3.6 cm/minute. […] Colonic pressure and balloon volume were continuously monitored on a potentiometric recorder (L6514, Linseis, Selb, Germany) with a paper speed of 1.0 cm/minute. The number of spike bursts, corresponding to abdominal contractions, was evaluated per 5-minute period. Colorectal volumes were determined as the maximal volume obtained for each stage of distension using the potentiometric recorder. […] The values were expressed as mean±SEM.

[2] = stability in simulated gastric fluid (SGF) pH 1; assay type: in vitro ADME; conditions: pH 1, 37° C., up to 3 h
Method: All samples were analyzed by LC/MS
The reference control sample was diluted 10-fold (1000 μL volume) in distilled water for a final concentration of 10 μM and chilled on ice. At each time point, samples were diluted 10-fold (1000 μL volume) in distilled water for an expected concentration of 10 μM, and chilled on ice, until analysis.

[3] = tested on: Female CD rats; test: rat model of postoperative ileus; assay type: in vivo; conditions: oral 10 μg/kg, after abdominal surgery, FIG. 16
Method: Female CD rats were used to test the effect of SEQ ID NO:3 on delayed transit induced by abdominal surgery and manual manipulation of the small intestine. Groups of at least nine rats underwent abdominal surgery under isoflurane anesthesia. Surgery consisted of laparotomy and 5 minutes of gentle manual intestinal massage. Following recovery from anesthesia, rats were dosed orally with either 10 μg/kg SEQ ID NO:3 or vehicle (20 mM Tris) in a volume of 300 μl. 1 hour after dosing, intestinal transit rate was measured. Animals were again dosed with 300 μl of the test article followed immediately by 500 μl of a charcoal meal (10% charcoal, 10% gum arabic in water). To calculate the distance of the small intestine traveled by the charcoal front, after 20 minutes, the total length of the intestine as well as the distance traveled from the stomach to the charcoal front were measured for each animal. Animals dosed with 10 μg/kg SEQ ID NO:3 experienced an increase in transit following abdominal surgery compared to animals dosed with vehicle alone (FIG. 16). Charcoal transit in SEQ ID NO:3 dosed animals was measured at 37.3+3.0% (mean+SEM) of the small intestine compared with vehicle at 24.7+1.4% (mean+SEM) of the small intestine.

Structure (SMILES): C[C@@H]1NC(=O)[C@@H]2CCCN2C(=O)[C@H](CC(N)=O)NC(=O)[C@@H]2CSSC[C@H](N)C(=O)N[C@H]3CSSC[C@H](NC1=O)C(=O)N[C@@H]([C@@H](C)O)C(=O)NCC(=O)N[C@H](C(=O)N[C@@H](Cc1ccc(O)cc1)C(=O)O)CSSC[C@H](NC(=O)[C@H](Cc1ccc(O)cc1)NC(=O)[C@H](CCC(=O)O)NC3=O)C(=O)N2 [SEQ ID NO:3] (H-CCEYCCNPACTGCY-OH; disulfide 1-6, 2-10, 5-13; N-terminus and C-terminus assumed)
- response to CRD after partial restraint stress [1]: reduced the response to CRD after PRS
- Cleavage of SEQ ID NO: 3 by proteolytic substance [2]: not detectable
- Charcoal transit, of the small intestine (mean+SEM) [3]: 37.3+3.0%
